In experiment [1] the target is T1, CRTh2 receptor (Homo sapiens, UniProt Q9Y5Y4).
T1 construct: expressed in transfected cells; host or cells: CHO.K1 (Chinese Hamster Ovary) cells, CHO.K1-CRTh2
T1 sequence (Q9Y5Y4 1-395): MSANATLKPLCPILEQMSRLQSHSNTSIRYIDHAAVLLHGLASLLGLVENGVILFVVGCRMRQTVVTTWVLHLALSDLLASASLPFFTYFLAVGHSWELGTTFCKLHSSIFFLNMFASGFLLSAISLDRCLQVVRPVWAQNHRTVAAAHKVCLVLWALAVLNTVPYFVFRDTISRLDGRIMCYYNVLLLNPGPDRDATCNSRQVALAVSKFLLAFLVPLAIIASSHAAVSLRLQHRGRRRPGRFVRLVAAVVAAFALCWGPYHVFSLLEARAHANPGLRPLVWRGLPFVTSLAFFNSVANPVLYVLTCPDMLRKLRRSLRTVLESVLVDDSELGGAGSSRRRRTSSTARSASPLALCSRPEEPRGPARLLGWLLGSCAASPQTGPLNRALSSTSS
As to the kind of experiment: Filtration binding assay: competition with [3H]-PGD2 on CHO.K1-CRTh2 membranes (results text calls it SPA binding assay). The conditions noted are these: [3H]-PGD2 2.5 nM, Cheng-Prussoff. The protocol:
The binding of CRTh2 antagonists is determined using membranes prepared from human CRTh2-expressing Chinese Hamster Ovary cells (CHO.K1-CRTh2). To produce cell membranes CHO.K1-CRTh2 cells cultured in roller bottles are harvested using cell dissociation buffer (Invitrogen). The cells are pelleted by centrifugation (167 g, 5 minutes). The cell pellet is incubated in hypotonic buffer (15 mM Tris-OH, 2 mM MgCl2, 0.3 mM EDTA, 1 mM EGTA, 1× Complete™ tablet) at 4° C. for 30 minutes. At 4° C. cells are homogenized using a Polytron® (IKA Ultra Turrax T25) for 5 bursts of 1 second. The homogenate is centrifuged (Beckman Optima TM TL Ultracentrifuge, 48,000 g, 30 minutes at 4° C.). The supernatant is discarded and the membrane pellet re-suspended in homogenisation buffer (75 mM Tris-OH, 12.5 mM MgCl2, 0.3 mM EDTA, 1 mM EGTA, 250 mM Sucrose, 1× Complete™ tablet. Membrane preparations are aliquoted and stored at […]. The protein content is estimated using Bradford Protein Assay Dye (Bio Rad).
The binding of [^3H]-PGD2 (157 Ci/mmol) to CHO.K1-CRTh2 membranes is determined in the absence (total binding) and presence (non-specific binding) of unlabelled PGD2 (1 μM). Subtraction of the cpm (counts per minute) of [^3H]-PGD2 binding in presence of excess unlabelled PGD2 from that observed in the absence of excess unlabelled PGD2 is defined as specific binding. Active CRTh2 antagonists are able to compete with [^3H]-PGD2 for binding to the CRTh2 receptor and are identified in a decrease in the number of cpm bound.
The assay is performed in Greiner U-bottomed 96 well-plates, in a final volume of 100 μL/well. CHO.K1-CRTh2 membranes were diluted in assay buffer (10 mM HEPES-KOH (pH 7.4), 1 mM EDTA and 10 mM MnCl2) and 10 μμg are added to each well. [^3H]-PGD2 is diluted in assay buffer and added to each well at a final concentration of 2.5 nM. To determine non-specific binding, [3H]-PGD2 binding to the CRTh2 receptor is competed with using unlabelled PGD2 at a final well concentration of 1 μM. The experiment is done in triplicate, with reagents added to the wells as follows: • 25 μL assay buffer for total binding or • 25 μL PGD2 to determine non-specific binding • 25 μL [^3H]PGD2 • […] membranes • 25 μL test compound in DMSO/assay buffer
The plates are incubated at RT on a shaker for 1 hour, and then harvested (Tomtec Harvester 9600) onto GF/C filter plates using wash buffer (10 mM HEPES-KOH, pH 7.4). […] Plates are then counted using a Packard Top Count instrument, Plates are then read on the Packard Topcount with the 3H Scintillation program (1 minute/well).
Ki (dissocation constant for the inhibition) values for the CRTh2 antagonists are reported. Ki values are determined using Sigma Plot™ software, using the Cheng-Prussoff equation. […]

Experiment [2] addresses T1, CRTh2 receptor. Kind of experiment: CRTH2 cAMP functional assay: inhibition of PGD2-mediated attenuation of forskolin-induced cAMP accumulation in CHO.K1-CRTh2 cells. Format: cell-based. The conditions noted are these: 10 nM PGD2, 5 μM forskolin, cAMP Alphascreen. The protocol: Ki (dissocation constant for the inhibition) values for the CRTh2 antagonists are reported. Ki values are determined using Sigma Plot™ software, using the Cheng-Prussoff equation. Ki=IC50/1+[S]/Kd, where S is the concentration of radioligand and Kd is the dissociation constant. CRTH2 cAMP Functional Assay Protocol
This assay is conducted in CHO.K1-CRTh2 cells. cAMP is generated in the cell by stimulating cells with 5 μM forskolin, an adenylate cyclase activator. PGD2 is added to activate the CRTh2 receptor which results in the attenuation of the forskolin-induced cAMP accumulation. Potential CRTh2 antagonists are tested for their ability to inhibit the PGD2-mediated attenuation of the forskolin-induced cAMP accumulation in CHO.K1-CRTh2 cells.
For each concentration value on the dose-response curve, test compounds are prepared in assay stimulation buffer (HBSS, 5 mM HEPES, 10 μM IBMX±0.1% human serum albumin) containing DMSO (3% vol/vol) and 5 μL/well is added to an assay plate (384-well white optiplate).
CHO.K1-CRTh2 cultured in tissue culture flasks are washed with PBS and harvested with dissociation buffer. Cells are washed with PBS and resuspended in stimulation buffer to a concentration of 0.4×10^6/mL and added to the assay plate (10 μL/well).
The assay plate is incubated at room temperature on a shaker for 15 minutes.
A mix of agonist (10 nM Prostaglandin D2) and 5 μM forskolin is prepared in assay stimulation buffer and added to the assay plate (5 μL/well).
In addition, a cAMP standard is serially diluted in assay stimulation buffer and added to separate empty wells on the assay plate (20 μL/well). The cAMP standard allows for the quantification of cAMP generated in CHO.K1-CRTH2 cells.
The assay plate is incubated at room temperature on a shaker for 60 minutes.
Cell lysis buffer (Lysis buffer: Milli-Q H2O, 5 mM HEPES, 0.3% Tween-20, 0.1% human serum albumin) is added to a bead mix (containing Alphascreen™ anti-cAMP acceptor beads 0.06 units/μL, Alphascreen™ streptavidin-coated donor beads 0.06 units/μL, biotinylated cAMP 0.06 units/μL, 10 μM IBMX) is prepared under darkened conditions 60 minutes prior to addition to the assay plate. The resulting lysis mix is added to all wells of the assay plate (40 μL/well).
The assay plate is sealed with Topseal-S™ and incubated in the dark at room temperature on a shaker for 45 minutes. The plate is then counted using a Packard Fusion™ instrument.
The resulting counts per minute are converted to nM cAMP by using the prepared cAMP standard curve. IC50 values (concentration of CRTh2 antagonist required to inhibit 50% of the PGD2-mediated attenuation of forskolin-induced cAMP accumulation in CHO.K1-CRTh2 cells) are then determined using Prism™ software.
On the technique in general: Changes in cAMP serve as a functional read-out for many G protein-coupled receptors.

SMILES strings stand for the structures.

On to `CC(Oc1ccc(Cl)cc1Cc1cc(Cl)ccc1OCC(=O)O)C(=O)N1CCCC1` (racemic) [Example 1, {4-Chloro-2-[5-chloro-2-(1-methyl-2-oxo-2-pyrrolidin-1-yl-ethoxy)-benzyl]-phenoxy}-acetic acid], for which the Ki – broadly, a measure of affinity in units of concentration, obtained from inhibition or displacement – at CRTh2 receptor [1] worked out at 0.0403 µM. The IC50 (usually the concentration that gives 50% inhibition) against CRTh2 receptor [2] is 0.0225 µM.

`CC(Oc1ccccc1Cc1cc(Cl)ccc1OCC(=O)O)C(=O)N1CCCC1` (centres unmarked) [Example 7, {4-Chloro-2-[2-(1-methyl-2-oxo-2-pyrrolidin-1-yl-ethoxy)-benzyl]-phenoxy}acetic acid] had an inhibition constant Ki at CRTh2 receptor [1] of 0.0824 µM. This compound showed a half-maximal inhibitory concentration (IC50) at CRTh2 receptor [2] of 0.0375 µM.

For `CC(Oc1ccccc1Cc1cc(Cl)ccc1OCC(=O)O)C(=O)N1CCCC1` (single isomer, unassigned) [8 (enantiomer 1), {4-Chloro-2-[2-((R/S)-1-methyl-2-oxo-2-pyrrolidin-1-yl-ethoxy)-benzyl]-phenoxy}-acetic acid], on CRTh2 receptor [1], the Ki came to 0.0602 µM. The compound further returned an IC50 against CRTh2 receptor [2] of 0.025 µM.

`CC(Oc1ccc(Cl)cc1Cc1cc(Cl)ccc1OCC(=O)O)C(=O)N1CCOCC1` (centres unmarked) [Example 3, {4-Chloro-2-[5-chloro-2-(1-methyl-2-morpholin-4-yl-2-oxo-ethoxy)-benzyl]-phenoxy}-acetic acid]: on CRTh2 receptor [1], the inhibition constant Ki turned out to be 0.095 µM. At CRTh2 receptor [2], this compound came in with an IC50 of 0.0225 µM.

These data come from patent publication US7678826B2, “Organic compounds for the treatment of inflammatory or allergic conditions” (priority 2005, dated 2010).
